Measurements as given in PubChem BioAssay (NCI).
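Following 48 hours of exposure in 96-well plates, responses at five concentrations were used to interpolate endpoints linearly. GI50 is the concentration that inhibits growth by half. TGI is the concentration that stops growth completely.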

Legend:
Assay in all cases: inhibition of tumour cell growth, NCI panel, 48 h
UACC-257 melanoma = system: UACC-257 melanoma
CAKI-1 renal = system: CAKI-1 renal
NCI/ADR-RES ovarian = system: NCI/ADR-RES ovarian
HCT-116 colon = system: HCT-116 colon
OVCAR-8 ovarian = system: OVCAR-8 ovarian
UACC-62 melanoma = system: UACC-62 melanoma
SK-OV-3 ovarian = system: SK-OV-3 ovarian
SN12C renal = system: SN12C renal
HCC-2998 colon = system: HCC-2998 colon
MDA-MB-231 breast = system: MDA-MB-231 breast
SK-MEL-5 melanoma = system: SK-MEL-5 melanoma
T-47D breast = system: T-47D breast
SR leukemia = system: SR leukemia
RXF 393 renal = system: RXF 393 renal
HOP-92 NSCLC = system: HOP-92 NSCLC
EKVX NSCLC = system: EKVX NSCLC
SF-539 CNS = system: SF-539 CNS
786-0 renal = system: 786-0 renal
OVCAR-3 ovarian = system: OVCAR-3 ovarian
MOLT-4 leukemia = system: MOLT-4 leukemia
DU-145 prostate = system: DU-145 prostate
IGROV1 ovarian = system: IGROV1 ovarian
HT29 colon = system: HT29 colon
LOX IMVI melanoma = system: LOX IMVI melanoma
MALME-3M melanoma = system: MALME-3M melanoma
RPMI-8226 leukemia = system: RPMI-8226 leukemia
SNB-19 CNS = system: SNB-19 CNS
SW-620 colon = system: SW-620 colon
MCF7 breast = system: MCF7 breast
HS 578T breast = system: HS 578T breast
SK-MEL-2 melanoma = system: SK-MEL-2 melanoma
OVCAR-5 ovarian = system: OVCAR-5 ovarian
U251 CNS = system: U251 CNS
MDA-MB-435 = system: MDA-MB-435
KM12 colon = system: KM12 colon
PC-3 prostate = system: PC-3 prostate
SNB-75 CNS = system: SNB-75 CNS
CCRF-CEM leukemia = system: CCRF-CEM leukemia
NCI-H226 lung = system: NCI-H226 lung
SF-268 CNS = system: SF-268 CNS
BT-549 breast = system: BT-549 breast
HL-60(TB) leukemia = system: HL-60(TB) leukemia
A498 renal = system: A498 renal
ACHN renal = system: ACHN renal
NCI-H460 lung = system: NCI-H460 lung
SK-MEL-28 melanoma = system: SK-MEL-28 melanoma
K-562 leukemia = system: K-562 leukemia
NCI-H522 lung = system: NCI-H522 lung
HOP-62 NSCLC = system: HOP-62 NSCLC
HCT-15 colon = system: HCT-15 colon
M14 melanoma = system: M14 melanoma
A549 NSCLC = system: A549 NSCLC
UO-31 renal = system: UO-31 renal
SF-295 CNS = system: SF-295 CNS
OVCAR-4 ovarian = system: OVCAR-4 ovarian
TK-10 renal = system: TK-10 renal

Molecule `Cc1cn(-c2cc(NC(=O)c3cncc(C#Cc4cnc5ccc(OCCCS(C)(=O)=O)nn45)c3)cc(C(F)(F)F)c2)cn1` has a GI50 (UACC-257 melanoma) of 3980 nM, a TGI (UACC-257 melanoma) of over 100000 nM and a GI50 (CAKI-1 renal) of 501 nM. The TGI (CAKI-1 renal) was 11800 nM, the GI50 (NCI/ADR-RES ovarian) was over 100000 nM and the TGI (NCI/ADR-RES ovarian) was over 100000 nM. It also gave a GI50 (HCT-116 colon) of 317 nM, a TGI (HCT-116 colon) of 3220 nM and a GI50 (OVCAR-8 ovarian) of 649 nM. It also gave a TGI (OVCAR-8 ovarian) of over 100000 nM, a GI50 (UACC-62 melanoma) of 706 nM and a TGI (UACC-62 melanoma) of over 100000 nM. The GI50 (SK-OV-3 ovarian) was over 100000 nM, the TGI (SK-OV-3 ovarian) was over 100000 nM and the GI50 (SN12C renal) was 551 nM. It also gave a TGI (SN12C renal) of over 100000 nM, a GI50 (HCC-2998 colon) of 1940 nM and a TGI (HCC-2998 colon) of over 100000 nM. It also gave a GI50 (MDA-MB-231 breast) of 430 nM, a TGI (MDA-MB-231 breast) of over 100000 nM and a GI50 (SK-MEL-5 melanoma) of 1550 nM. It also gave a TGI (SK-MEL-5 melanoma) of 10500 nM, a GI50 (T-47D breast) of 1760 nM and a TGI (T-47D breast) of over 100000 nM. For the same molecule, the GI50 (SR leukemia) was 303 nM, the TGI (SR leukemia) was 4820 nM and the GI50 (RXF 393 renal) was 1140 nM. The TGI (RXF 393 renal) was 3320 nM, the GI50 (HOP-92 NSCLC) was 188 nM and the TGI (HOP-92 NSCLC) was 713 nM. For the same molecule, the GI50 (EKVX NSCLC) was 2350 nM, the TGI (EKVX NSCLC) was over 100000 nM and the GI50 (SF-539 CNS) was 552 nM. It also gave a TGI (SF-539 CNS) of 7350 nM, a GI50 (786-0 renal) of 2010 nM and a TGI (786-0 renal) of over 100000 nM. For the same molecule, the GI50 (OVCAR-3 ovarian) was 2510 nM, the TGI (OVCAR-3 ovarian) was over 100000 nM and the GI50 (MOLT-4 leukemia) was 635 nM. For the same molecule, the TGI (MOLT-4 leukemia) was 6710 nM, the GI50 (DU-145 prostate) was 1180 nM and the TGI (DU-145 prostate) was over 100000 nM. It also gave a GI50 (IGROV1 ovarian) of 527 nM, a TGI (IGROV1 ovarian) of over 100000 nM and a GI50 (HT29 colon) of 706 nM. For the same molecule, the TGI (HT29 colon) was over 100000 nM, the GI50 (LOX IMVI melanoma) was 875 nM and the TGI (LOX IMVI melanoma) was 27100 nM. The GI50 (MALME-3M melanoma) was 397 nM, the TGI (MALME-3M melanoma) was 5110 nM and the GI50 (RPMI-8226 leukemia) was 2550 nM. The TGI (RPMI-8226 leukemia) was 92600 nM, the GI50 (SNB-19 CNS) was 2570 nM and the TGI (SNB-19 CNS) was over 100000 nM. It also gave a GI50 (SW-620 colon) of 462 nM, a TGI (SW-620 colon) of over 100000 nM and a GI50 (MCF7 breast) of 310 nM. It also gave a TGI (MCF7 breast) of 2520 nM, a GI50 (HS 578T breast) of 1430 nM and a TGI (HS 578T breast) of 7030 nM. For the same molecule, the GI50 (SK-MEL-2 melanoma) was 427 nM, the TGI (SK-MEL-2 melanoma) was 2880 nM and the GI50 (OVCAR-5 ovarian) was 1790 nM. For the same molecule, the TGI (OVCAR-5 ovarian) was over 100000 nM, the GI50 (U251 CNS) was 2670 nM and the TGI (U251 CNS) was over 100000 nM. It also gave a GI50 (MDA-MB-435) of 1490 nM, a TGI (MDA-MB-435) of over 100000 nM and a TGI (KM12 colon) of 3360 nM. For the same molecule, the GI50 (PC-3 prostate) was 5880 nM, the TGI (PC-3 prostate) was over 100000 nM and the GI50 (SNB-75 CNS) was 129 nM. It also gave a TGI (SNB-75 CNS) of 1760 nM, a GI50 (CCRF-CEM leukemia) of 389 nM and a TGI (CCRF-CEM leukemia) of 3610 nM. The GI50 (NCI-H226 lung) was 922 nM, the TGI (NCI-H226 lung) was 49100 nM and the GI50 (SF-268 CNS) was 1410 nM. It also gave a TGI (SF-268 CNS) of 6980 nM, a GI50 (BT-549 breast) of 1700 nM and a TGI (BT-549 breast) of 10600 nM. It also gave a GI50 (HL-60(TB) leukemia) of 401 nM, a TGI (HL-60(TB) leukemia) of 2510 nM and a GI50 (A498 renal) of over 100000 nM. For the same molecule, the TGI (A498 renal) was over 100000 nM, the GI50 (ACHN renal) was 4760 nM and the TGI (ACHN renal) was over 100000 nM. It also gave a GI50 (NCI-H460 lung) of 3000 nM, a TGI (NCI-H460 lung) of over 100000 nM and a GI50 (SK-MEL-28 melanoma) of 1510 nM. The TGI (SK-MEL-28 melanoma) was over 100000 nM, the GI50 (K-562 leukemia) was 128 nM and the TGI (K-562 leukemia) was over 100000 nM. It also gave a GI50 (NCI-H522 lung) of 1210 nM, a TGI (NCI-H522 lung) of 3000 nM and a GI50 (HOP-62 NSCLC) of 1140 nM. For the same molecule, the TGI (HOP-62 NSCLC) was over 100000 nM, the GI50 (HCT-15 colon) was 5840 nM and the TGI (HCT-15 colon) was over 100000 nM. The GI50 (M14 melanoma) was 1100 nM, the TGI (M14 melanoma) was 49400 nM and the GI50 (A549 NSCLC) was 5340 nM. The TGI (A549 NSCLC) was over 100000 nM, the GI50 (UO-31 renal) was 3590 nM and the TGI (UO-31 renal) was over 100000 nM. The GI50 (SF-295 CNS) was 29100 nM, the TGI (SF-295 CNS) was over 100000 nM and the GI50 (OVCAR-4 ovarian) was 5780 nM. The TGI (OVCAR-4 ovarian) was over 100000 nM, the GI50 (TK-10 renal) was 3210 nM and the TGI (TK-10 renal) was over 100000 nM.
